Measurements from patent US10624829B2, “VEGFC production promoter” (Shiseido Company, Ltd., priority 2012, dated 2020).

Tests used:
[1] = test system: VEGFC; experiment: VEGFC-inducing activity in HaCaT cells (VEGF-C ELISA of culture supernatant, normalised to cell number); type: cell-based, human; conditions: aromatic final concentration 0.001% to 0.01%, 48 hours culture, ELISA of supernatant divided by alamar blue fluorescence, values only in FIG. 1
Procedure: As is described in detail in the subsequent examples, screening for agents that induce a lymph vessel activating factor in the form of VEGFC was carried out by allowing various types of candidate aromatics to act on human epidermis-derived cultured cells in the form of HaCaT cells, quantifying VEGFC, and selecting aromatics having VEGFC-inducing activity as active ingredients by using the amount of VEGFC as an indicator of VEGFC-inducing activity.
Human-derived cultured cells in the form of HaCaT cells (German Cancer Research Center, Heidelberg, Germany) were cultured in DMEM medium (Gibco Low Glucose DMEM™, Life Technologies Inc.) containing 10% FBS (Standard Fetal Bovine Serum, Hyclone Laboratories Inc.) and disseminated in a 24-well plate to 15×10^4 cells/well. The medium was replaced with serum-free DMEM 24 hours after dissemination followed by culturing for 24 hours. […] The culture supernatant was recovered after culturing for 48 hours and the amount of VEGFC in the culture supernatant was quantified in accordance with the protocol of an ELISA kit (Quanikine® Human VEGF-C Immunoassay (R&D Systems Inc., Minneapolis, Minn.)). In addition, alamar blue (TREK Diagnostic Systems, Inc., Cleveland, US) was added to the cells after recovering the culture supernatant followed by measuring the number of cells based on their fluorescence intensity (Ex: 544 nm, Em: 590 nm). […]

[2] = test system: HaCaT cells; experiment: Cytotoxicity / cell number by alamar blue fluorescence in HaCaT cells; type: cell-based, human; conditions: aromatic final concentration 0.001% to 0.01%, 48 hours, alamar blue (Ex: 544 nm, Em: 590 nm)
Procedure: Human-derived cultured cells in the form of HaCaT cells (German Cancer Research Center, Heidelberg, Germany) were cultured in DMEM medium (Gibco Low Glucose DMEM™, Life Technologies Inc.) containing 10% FBS (Standard Fetal Bovine Serum, Hyclone Laboratories Inc.) and disseminated in a 24-well plate to 15×10^4 cells/well. The medium was replaced with serum-free DMEM 24 hours after dissemination followed by culturing for 24 hours. Subsequently, each aromatic dissolved in ethanol was added (aromatic final concentration: 0.001% to 0.01%). Ethanol was used as a control. The culture supernatant was recovered after culturing for 48 hours and the amount of VEGFC in the culture supernatant was quantified in accordance with the protocol of an ELISA kit (Quanikine® Human VEGF-C Immunoassay (R&D Systems Inc., Minneapolis, Minn.)). In addition, alamar blue (TREK Diagnostic Systems, Inc., Cleveland, US) was added to the cells after recovering the culture supernatant followed by measuring the number of cells based on their fluorescence intensity (Ex: 544 nm, Em: 590 nm). The amount of VEGFC in the supernatant was divided by fluorescence intensity, and the relative VEGFC-inducing activity per cell based on a value of 100 for the control (ethanol) is shown in FIG. 1.

SMILES | relative VEGFC-inducing activity per cell based on a value of 100 for the control (ethanol) [1] | cytotoxicity [2]
CC(=O)OCCC(C)CCC=C(C)C (stereo not shown) [citronellyl acetate, Citronellyl acetate] | demonstrated VEGFC-inducing activity | without demonstrating cytotoxicity
CC(C)=CC1CC(C)CCO1 (stereo not shown) [rose oxide, Rose oxide] | demonstrated VEGFC-inducing activity | without demonstrating cytotoxicity
